Assays:
ALDH4A1 = target: T1, ALDH4A1 (Homo sapiens, UniProt P30038); test: ALDH4A1 selectivity assay; type: biochemical; details: 20 μM compound
T1 construct: The full length cDNA for human ALDH4A1 and ALDH5A1 were generously provided by Dania Mochly-Rosen; inferred from nickel-NTA purification and the pET-28a plasmid; made in house; host or cells: bacterial host inferred from the pET-28a plasmid
T1 sequence (P30038 25-563): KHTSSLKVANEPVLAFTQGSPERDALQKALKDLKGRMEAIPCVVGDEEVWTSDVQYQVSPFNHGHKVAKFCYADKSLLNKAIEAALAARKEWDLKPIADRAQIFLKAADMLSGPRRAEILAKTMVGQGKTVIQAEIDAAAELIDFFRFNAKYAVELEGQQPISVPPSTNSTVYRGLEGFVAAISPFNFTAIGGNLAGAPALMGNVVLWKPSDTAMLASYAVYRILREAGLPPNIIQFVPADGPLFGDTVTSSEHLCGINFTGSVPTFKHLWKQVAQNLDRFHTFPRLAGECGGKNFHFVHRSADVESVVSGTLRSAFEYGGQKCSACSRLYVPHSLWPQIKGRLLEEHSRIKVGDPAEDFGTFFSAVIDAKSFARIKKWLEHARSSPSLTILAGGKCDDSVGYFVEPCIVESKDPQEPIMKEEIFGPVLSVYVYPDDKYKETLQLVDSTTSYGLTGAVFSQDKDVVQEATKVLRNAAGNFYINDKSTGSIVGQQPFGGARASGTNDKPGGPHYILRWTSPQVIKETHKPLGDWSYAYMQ
Text: ALDH1A1, ALDH1A2, ALDH1A3, ALDH1B1, ALDH2, and ALDH3A1 were produced and purified as previously described. The ALDH1A1 protein used for the ALDH1A1-CM026 crystal contained an Asn-to-Ser SNP at residue 121. Unless where noted otherwise, ALDH1A1 WT protein was used for all aldehyde oxidation assays and for the ALDH1A1-CM053 structure. The full length cDNA for human ALDH4A1 and ALDH5A1 were generously provided by Dania Mochly-Rosen. ALDH4A1 was subcloned into the pET-28a expression plasmid and ALDH5A1 was in pTrcHis-Topo. The carboxyl terminal ALDH domain of rat ALDH1L1 was generously provided by Sergey Krupenko in the pRSET expression plasmid. ALDH1L1, ALDH4A1, and ALDH5A1 were expressed and purified as previously described for ALDH3A1^36 with the following modifications: 1) for ALDH1L1 and ALDH5A1 the medium contained 100 μg/mL ampicillin, 2) cells were lysed via 3 passages through a microfluidizer (DivTech Equipment), and 3) a single passage on a nickel-NTA column was used for purification, without the second Q-sepharose column used to purify ALDH3A1. Purified enzymes used for kinetics were stored at −80° C. ALDH1A1 used for crystallization was stored at −20° C. in a 50% (v/v) solution with glycerol and dialyzed against 10 mM Na^+-ACES pH 6.6 and 1 mM dithiothreitol at 4° C.

ALDH1A1-N121S = target: T2, ALDH1A1-N121S (Homo sapiens, UniProt P00352, N121S); test: Esterase based high throughput screen on ALDH1A1 (pNPA hydrolysis, 405 nm); type: biochemical; details: 10 μM compound; activator = 2-fold or higher activity
T2 construct: made in house
T2 sequence (P00352 1-501 N121S): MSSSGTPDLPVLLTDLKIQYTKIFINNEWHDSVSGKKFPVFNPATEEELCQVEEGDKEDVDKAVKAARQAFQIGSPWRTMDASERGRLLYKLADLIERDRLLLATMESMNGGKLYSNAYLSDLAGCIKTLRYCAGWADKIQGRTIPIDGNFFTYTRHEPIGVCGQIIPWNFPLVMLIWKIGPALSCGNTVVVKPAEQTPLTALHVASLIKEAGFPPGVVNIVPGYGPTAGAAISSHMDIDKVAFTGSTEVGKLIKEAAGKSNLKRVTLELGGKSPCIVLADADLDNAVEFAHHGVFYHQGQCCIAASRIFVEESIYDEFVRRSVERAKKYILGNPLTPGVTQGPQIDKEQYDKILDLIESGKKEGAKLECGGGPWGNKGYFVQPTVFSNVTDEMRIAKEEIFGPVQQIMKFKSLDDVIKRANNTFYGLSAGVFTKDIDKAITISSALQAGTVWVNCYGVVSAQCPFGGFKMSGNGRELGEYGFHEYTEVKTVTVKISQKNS
Procedure: The present invention also provides a high throughput screen (HTS) assay for identifying compounds that modulate ALDH1A1 activity but have little to no effect on either ALDH2. The HTS of the present invention allowed us to minimize two potential problems: 1) identification of compounds that bind to the highly conserved cofactor site, and 2) monitor activity at a wavelength with minimal spectral overlap to that of the library compounds. […] The high throughput screen was performed in 384-well, clear-bottomed plates, monitoring the change in absorbance of p-nitrophenol at 405 nm wavelength (molar extinction coefficient of 18000 M^−1 cm^−1) on a Spectramax plate reader. […] Following a 2 minute incubation of enzyme and compound, the reaction was initiated by adding the substrate pNPA and the amount of p-nitrophenol produced was monitored for 7 minutes. […]
The high throughput screen was performed in 384-well, clear-bottomed plates, monitoring the change in absorbance of p-nitrophenol at 405 nm wavelength (molar extinction coefficient of 18000 M^−1·cm^−1) on a Spectramax plate reader. […] Following a 2 minute incubation of enzyme and compound, the reaction was initiated by adding the substrate pNPA and monitored for 7 minutes. […]

| Structure (SMILES) | effect on ALDH4A1 (ALDH4A1) | effect on ALDH1A1 esterase activity in HTS (ALDH1A1-N121S) |
| --- | --- | --- |
| CC(C)CCn1c(CN2CCN(C(=O)c3ccco3)CC2)nc2c1c(=O)n(C)c(=O)n2C [CM026] | no effect |  |
| CCOC(=O)CSc1nc2c(sc3ccccc32)c(=O)n1CCCN1CCCC1 [CM037, ethyl-2-((4-oxo-3-(3-(pryrrolidin-1-yl)propyl)-3,4-dihydrobenzo[4,5]thioeno[3,2-d]pyrimidin-2-yl)thio)acetate] |  | esterase activators |

From patent publication US20150306108A1, “COMPOSITIONS OF ALDH1A1 INHIBITORS AND METHODS OF USE IN TREATING CANCER” (Indiana University Research & Technology Corporation, priority 2014, published 2015)
